Test results from US12201610B2, “Compositions comprising aticaprant” (Janssen Pharmaceuticals, Inc., priority 2022, dated 2025).

Legend:
Type in all cases: in vivo, human
subjects with MDD [1] = assay: SIGH-A score (Example 6); conditions: 10 mg; Treatment Week 6; 59 subjects analyzed
From the text: v. To investigate the effect of aticaprant on symptoms of anxiety using the HAM-A and on core symptoms of anxiety using the HAM-A6 subscale.
(§1) • (i) Depression: Montgomery-Åsberg Depression Rating Scale (MADRS), Clinical Global Impression-Severity (CGI-S), Symptoms of Major Depressive Disorder Scale (SMDDS), and Self-assessment of treatment experience (SATE) • (ii) Anhedonia: Snaith-Hamilton Pleasure Scale (SHAPS) • (iii) Anxiety: Structured Interview Guide for the Hamilton Anxiety scale (SIGH-A) and HAM-A6 • (iv) Effects on Cognition: The Cognitive and Physical Functioning Questionnaire (CPFQ) • (v) Safety assessments

subjects with MDD [2] = assay: Treatment-emergent adverse events, full safety analysis set (Example 6)
subjects with MDD [3] = assay: SMDDS total score (Example 6); conditions: 10 mg; Treatment Week 6; 59 subjects analyzed
From the text: SMDDS is a subjective rating of the patient. The SMDDS is a 16-item PRO measure. Each item is rated by the subject according to a 5-point Likert scale. Subjects respond to each question using a rating scale between 0 (“Not at all” or “Never”) to 4 (“Extremely” or “Always”). The total score ranges […]. The SMDDS uses a 7-day recall period and verbal rating scales. Higher score indicates more severe depressive symptomatology.
iv. To investigate the effect of aticaprant on symptoms of depression using the Clinical Global Impression-Severity (CGI-S), the patient reported Symptoms of Major Depressive Disorder Scale (SMDDS) and the self-assessment of treatment experience (SATE).
as §1

[4] = TEAE in >= 5% of subjects, Treatment Period, Full Safety Analysis Set, aticaprant 10 mg (N = 85), Table 40
[5] = TEAE of Special Interest, Treatment Period, Full Safety Analysis Set, aticaprant 10 mg (N = 85), Table 41
[6] = Treatment Period, Full Safety Analysis Set, aticaprant 10 mg (N = 85)

`Cc1cc(C)cc(C2CCCN2Cc2ccc(Oc3ccc(C(N)=O)cc3F)cc2)c1` (centres unmarked) [aticaprant, 3-fluoro-4-4-2-(3,5-dimethylphenyl)pyrrolidin-1-yl-methylphenoxybenzamide] was tested. Which “Change from Treatment Baseline in SIGH-A score, Arithmetic Mean (SD)” value (subjects with MDD [1]) did it give?
The value was −5.85 ± 5.369 scores on a scale.

And the “Diarrhea, %” value (subjects with MDD [2]; [4])?
Its value is 8%.

What about the “Gastrointestinal Disorders, %” value (subjects with MDD [2]; [4]) of the same compound?
The value was 14%.

And the “Headache, %” value (subjects with MDD [2]; [4])?
The value was 12%.

And the “Infections And Infestations, %” value (subjects with MDD [2]; [4])?
Its value is 15%.

What about the “Nasopharyngitis, %” value (subjects with MDD [2]; [4]) of the same compound?
The value was 6%.

What about the “Nervous System Disorders, %” value (subjects with MDD [2]; [4]) of the same compound?
The value was 15%.

And the “Pruritus, %” value (subjects with MDD [2]; [4])?
The value was 6%.

And the “Skin And Subcutaneous Tissue Disorders, %” value (subjects with MDD [2]; [4])?
Its value is 7%.

What about the “Total no. Subjects with Adverse Events, %” value (subjects with MDD [2]; [4]) of the same compound?
Its value is 47%.

What about the “Abdominal Pain, %” value (subjects with MDD [2]; [5]) of the same compound?
Its value is 1.2%.

What about the “Diarrhea, %” value (subjects with MDD [2]; [5]) of the same compound?
The value was 8.2%.

What about the “Dyspepsia, %” value (subjects with MDD [2]; [5]) of the same compound?
The value was 1.2%.

And the “Gastrointestinal Disorders, %” value (subjects with MDD [2]; [5])?
The value was 10.6%.

And the “Pruritus, %” value (subjects with MDD [2]; [5])?
The value was 5.9%.

And the “Skin And Subcutaneous Tissue Disorders, %” value (subjects with MDD [2]; [5])?
The value was 5.9%.

And the “Total no. Subjects with Adverse Events of Special Interest, %” value (subjects with MDD [2]; [5])?
Its value is 15.3%.

What about the “Subjects with TEAE leading to discontinuation of agent, %” value (subjects with MDD [2]; [6]) of the same compound?
Its value is “(1.2) %”.

And the “Total subjects affected by non-serious adverse events, %” value (subjects with MDD [2]; [6])?
Its value is “(27.1%)”.

And the “Subjects with 1 or more TEAE, %” value (subjects with MDD [2]; Treatment Period, Full Safety Analysis Set, aticaprant 10 mg (N = 85), Table 39)?
Its value is “(47.1) %”.

What about the “Subjects with drug-related TEAE, %” value (subjects with MDD [2]; Treatment Period, Full Safety Analysis Set, aticaprant 10 mg (N = 85), possible, probable, very likely) of the same compound?
Its value is “(23.5) %”.

What about the “subjects who discontinued during the treatment period due to TEAEs” value (subjects with MDD [2]; due to diarrhea, nausea, vomiting and headache) of the same compound?
The value was 1 subject.

What about the “subjects with at least one TEAE during the treatment period” value (subjects with MDD [2]; full safety analysis set, 40/85 subjects) of the same compound?
The value was 47.1%.

And the “patients with acute cholecystitis” value (subjects with MDD [2]; treatment period)?
The value was 0 patients.

And the “subjects with pruritus (TEAE of special interest)” value (subjects with MDD [2]; treatment period, 5/85 subjects)?
The value was 5.9%.

And the “subjects with diarrhea (TEAE)” value (subjects with MDD [2]; treatment period, 7/85 subjects)?
Its value is 8.2%.

And the “subjects with headache (TEAE)” value (subjects with MDD [2]; treatment period, 10/85 subjects)?
The value was 11.8%.

And the “subjects with TEAEs of special interest” value (subjects with MDD [2]; treatment period, 13/85 subjects)?
The value was 15.3%.

And the “Change from Treatment Baseline in SMDDS Total Score, Arithmetic Mean (SD)” value (subjects with MDD [3])?
Its value is −8.03 ± 9.957 Scores on a scale.
